The record followed here is US20210047291A1, “PESTICIDALLY ACTIVE HETEROCYCLIC DERIVATIVES WITH SULFUR CONTAINING SUBSTITUENTS” (SYNGENTA PARTICIPATIONS AG, priority 2018, published 2021).

Assay type in all cases: in vivo
Data set [1] deals with Diabrotica Balteata (Corn Root Worm). As to the kind of experiment: Example B2: Diabrotica balteata, maize sprouts, L2 larvae. The settings on record: for percent effect (mortality or growth inhibition) at 200 ppm: Diabrotica balteata, 96 h, application rate of 200 ppm, L2 larvae, 4 days after infestation, read-out: effect in at least one of the two categories (mortality or growth inhibition). The procedure:
Maize sprouts placed onto an agar layer in 24-well microtiter plates were treated with aqueous test solutions prepared from 10,000 ppm DMSO stock solutions by spraying. After drying, the plates were infested with L2 larvae (6 to 10 per well). The samples were assessed for mortality and growth inhibition in comparison to untreated samples 4 days after infestation.

Data set [2] deals with Myzus persicae (Green peach aphid). Description: Example B6: Myzus persicae systemic activity, pea seedlings. The note with it: for mortality at 24 ppm: Myzus persicae, 144 h, test rate of 24 ppm, mixed ages, 6 days after placing seedlings into test solutions, read-out: mortality. The procedure:
Roots of pea seedlings infested with an aphid population of mixed ages were placed directly into aqueous test solutions prepared from 10,000 DMSO stock solutions. The samples were assessed for mortality 6 days after placing seedlings into test solutions.

Data set [3] has as its system Euschistus heros (Neotropical Brown Stink Bug). Description: Example B3: Euschistus heros, soybean leaves, N2 nymphs. The settings on record: for percent effect (mortality or growth inhibition) at 200 ppm: Euschistus heros, 120 h, application rate of 200 ppm, N2 nymphs, 5 days after infestation, read-out: effect in at least one of the two categories (mortality or growth inhibition). As to the method:
Soybean leaves on agar in 24-well microtiter plates were sprayed with aqueous test solutions prepared from 10,000 ppm DMSO stock solutions. After drying the leaves were infested with N2 nymphs. The samples were assessed for mortality and growth inhibition in comparison to untreated samples 5 days after infestation.

Data set [4] has as its system Myzus persicae (Green peach aphid). Description: Example B5: Myzus persicae feeding/contact activity, sunflower leaf discs. The settings on record: foliar; for mortality at 200 ppm: Myzus persicae, 144 h, application rate of 200 ppm, mixed ages, 6 days after infestation, read-out: mortality. The procedure: Sunflower leaf discs were placed onto agar in a 24-well microtiter plate and sprayed with aqueous test solutions prepared from 10,000 ppm DMSO stock solutions. After drying, the leaf discs were infested with an aphid population of mixed ages. The samples were assessed for mortality 6 days after infestation.

The subject of data set [5] is Frankliniella occidentalis (Western Flower Thrips). As to the kind of experiment: Example B4: Frankliniella occidentalis feeding/contact activity, sunflower leaf discs. The settings on record: foliar, 168 h, application rate of 200 ppm, mixed ages, 7 days after infestation. As to the method:
Sunflower leaf discs were placed on agar in 24-well microtiter plates and sprayed with aqueous test solutions prepared from 10,000 DMSO stock solutions. After drying the leaf discs were infested with a Frankliniella population of mixed ages. The samples were assessed for mortality 7 days after infestation.

Data set [6] concerns Spodoptera littoralis (Egyptian Cotton Leaf Worm). Description: Example B9: Spodoptera littoralis, cotton leaf discs (mortality, anti-feeding, growth inhibition). The settings on record: foliar, 72 h, application rate of 200 ppm, L1 larvae, 3 days after infestation, read-out: control (mortality, anti-feeding effect or growth inhibition). The procedure:
Cotton leaf discs were placed onto agar in 24-well microtiter plates and sprayed with aqueous test solutions prepared from 10,000 ppm DMSO stock solutions. After drying the leaf discs were infested with five L1 larvae. The samples were assessed for mortality, anti-feeding effect, and growth inhibition in comparison to untreated samples 3 days after infestation. Control of Spodoptera littoralis by a test sample is given when at least one of the categories mortality, anti-feedant effect, and growth inhibition is higher than the untreated sample.

Data set [7] concerns Melodoigyne incognita. Description: Example B14: Melodoigyne incognita juvenile mobility, in vitro profiling in 96 well plate. The note with it: 200 ppm; after 24 h; second stage juveniles; read-out: control (juvenile mobility). The procedure: Test solutions are prepared from 10,000 ppm DMSO stock solutions with a TECAN robot to achieve 20 μL of 1000, 200, 100, 50, 25 and 12.5 ppm. For each concentration three replicates are produced. Per well, 80 μL nematode solution is added containing 100 to 150 freshly harvested second stage juveniles of Melodoigyne incognita. The plates are covered and stored at room temperature in the dark and incubated for 24 h. Mobility of the exposed juveniles in a treated well is measured using an imaging tool and compared to an average of 12 untreated replicates.

In data set [8] the test system is Plutella xylostella (Diamond Back Moth). Description: Example B7: Plutella xylostella, artificial diet, L2 larvae. The note with it: 120 h, application rate of 200 ppm, L2 larvae, 5 days after infestation, read-out: effect in at least one of the two categories (mortality or growth inhibition). As to the method: 24-well microtiter plates with artificial diet were treated with aqueous test solutions prepared from 10,000 ppm DMSO stock solutions by pipetting. After drying, the plates were infested with L2 larvae (10 to 15 per well). The samples were assessed for mortality and growth inhibition in comparison to untreated samples 5 days after infestation.

The subject of data set [9] is Tetranychus urticae (Two-Spotted Spider Mite). Description: Example B10: Tetranychus urticae feeding/contact activity, bean leaf discs. The settings on record: foliar, 192 h, application rate of 200 ppm, mixed population (mobile stages), 8 days after infestation. The procedure:
Bean leaf discs on agar in 24-well microtiter plates were sprayed with aqueous test solutions prepared from 10,000 ppm DMSO stock solutions. After drying the leaf discs were infested with a mite population of mixed ages. The samples were assessed for mortality on mixed population (mobile stages) 8 days after infestation.

With `CCS(=O)(=O)c1cc(NC(C)=O)cnc1-c1nc2cc(C(F)(F)F)ncc2n1C` [P4, N-[5-ethylsulfonyl-6-[3-methyl-6-(trifluoromethyl)imidazo[4,5-c]pyridin-2-yl]-3-pyridyl]acetamide], in data set [1] (Concentration 200 ppm, Diabrotica balteata (Example B2), listed as drawing 154), the “Mortality (%)” value was determined as 100%. For the same compound, the percent effect (mortality or growth inhibition) at 200 ppm in data set [1] and in [3] was no less than 80% each time. Besides, the mortality at 24 ppm in data set [2] was no less than 80%. Moreover, the mortality at 200 ppm in data set [4] and in [5] was no less than 80% each time.
Regarding `CCS(=O)(=O)c1cc(N(C)C(=O)C2CC2)cnc1-c1nc2cc(C(F)(F)F)ncc2n1C` [P9, N-[5-ethylsulfonyl-6-[3-methyl-6-(trifluoromethyl)imidazo[4,5-c]pyridin-2-yl]-3-pyridyl]-N-methyl-cyclopropanecarboxamide], the percent effect (mortality or growth inhibition) at 200 ppm in data set [1], in data set [3] and in data set [8] was no less than 80% each time. The mortality at 24 ppm in [2] is no less than 80%. Besides, in [6], the percent control (mortality, anti-feedant effect or growth inhibition) at 200 ppm was no less than 80%. For the same compound, the mortality at 200 ppm in data set [4] and in data set [5] was no less than 80% throughout. Besides, in data set [7], the pest or weed control at 200 ppm is no less than 80%.
Take `CCS(=O)(=O)c1cc(N(C)C(=O)C(F)F)cnc1-c1nc2cc(C(F)(F)F)ncc2n1C` [P13, N-[5-ethylsulfonyl-6-[3-methyl-6-(trifluoromethyl)imidazo[4,5-c]pyridin-2-yl]-3-pyridyl]-2,2-difluoro-N-methyl-acetamide]: the mortality at 200 ppm in [9] and in data set [4] was no less than 80% each time. Besides, the percent effect (mortality or growth inhibition) at 200 ppm in data set [1], in data set [3] and in data set [8] was no less than 80% in each case. The mortality at 24 ppm in data set [2] was no less than 80%. For the same compound, the percent control (mortality, anti-feedant effect or growth inhibition) at 200 ppm in data set [6] was no less than 80%. In addition, the pest or weed control at 200 ppm in data set [7] was no less than 80%.
As to `CCC(=O)N(C)c1cnc(-c2nc3cc(C(F)(F)F)ncc3n2C)c(S(=O)(=O)CC)c1` [P23, N-[5-ethylsulfonyl-6-[3-methyl-6-(trifluoromethyl)imidazo[4,5-c]pyridin-2-yl]-3-pyridyl]-N-methyl-propanamide], the mortality at 200 ppm in data set [9] and in data set [4] was no less than 80% each time. The percent effect (mortality or growth inhibition) at 200 ppm in data set [1], in data set [3] and in data set [8] was no less than 80% in each case. In addition, the mortality at 1.5 ppm in [2] (Concentration 1.5 ppm, Myzus persicae (systemic, Example B6), read-out: Mortality (%)) stood at 100%. In addition, the mortality at 24 ppm in [2] was no less than 80%. For the same compound, the mortality at 50 ppm in [3] (Concentration 50 ppm, Euschistus heros (Example B3), read-out: Mortality (%)) turned out to be 100%. In [6], the percent control (mortality, anti-feedant effect or growth inhibition) at 200 ppm was no less than 80%. Moreover, the mortality at 12.5 ppm in data set [4] (Concentration 12.5 ppm, Myzus persicae (feeding/contact, Example B5), read-out: Mortality (%)) turned out to be 90%. The pest or weed control at 200 ppm in data set [7] was no less than 80%.
Consider `CCC(=O)N(OC)c1cnc(-c2nc3cc(C(F)(F)F)ncc3n2C)c(S(=O)(=O)CC)c1` [P29, N-[5-ethylsulfonyl-6-[3-methyl-6-(trifluoromethyl)imidazo[4,5-c]pyridin-2-yl]-3-pyridyl]-N-methoxy-propanamide], for which the percent effect (mortality or growth inhibition) at 200 ppm in data set [1], in [3] and in [8] was no less than 80% throughout. In addition, the mortality at 24 ppm in data set [2] is no less than 80%. Moreover, the percent control (mortality, anti-feedant effect or growth inhibition) at 200 ppm in data set [6] is no less than 80%. In addition, in [4], the mortality at 200 ppm is no less than 80%. Also, the pest or weed control at 200 ppm in [7] was no less than 80%.
Take `CCS(=O)(=O)c1cc(N(OC)C(C)=O)cnc1-c1nc2cc(C(F)(F)F)ncc2n1C` [P30, N-[5-ethylsulfonyl-6-[3-methyl-6-(trifluoromethyl)imidazo[4,5-c]pyridin-2-yl]-3-pyridyl]-N-methoxy-acetamide]: the percent effect (mortality or growth inhibition) at 200 ppm in data set [1], in data set [3] and in [8] was no less than 80% throughout. Moreover, the mortality at 24 ppm in data set [2] was no less than 80%. The percent control (mortality, anti-feedant effect or growth inhibition) at 200 ppm in data set [6] is no less than 80%. Besides, the mortality at 200 ppm in data set [4] was no less than 80%. For the same compound, the pest or weed control at 200 ppm in data set [7] was no less than 80%.
As for `CCS(=O)(=O)c1cc(N(C)C(=O)C2(C#N)CC2)cnc1-c1nc2cc(C(F)(F)F)ncc2n1C` [P38, 1-cyano-N-[5-ethylsulfonyl-6-[3-methyl-6-(trifluoromethyl)imidazo[4,5-c]pyridin-2-yl]-3-pyridyl]-N-methyl-cyclopropanecarboxamide], the mortality at 200 ppm in data set [9] and in data set [4] was no less than 80% in each case. The percent effect (mortality or growth inhibition) at 200 ppm in data set [1], in data set [3] and in data set [8] was no less than 80% each time. In [2], the mortality at 24 ppm is no less than 80%. In data set [7], the pest or weed control at 200 ppm is no less than 80%.
For the compound `CCC(=O)N(c1cnc(-c2nc3cc(C(F)(F)F)ncc3n2C)c(S(=O)(=O)CC)c1)C1CC1` [P40, N-cyclopropyl-N-[5-ethylsulfonyl-6-[3-methyl-6-(trifluoromethyl)imidazo[4,5-c]pyridin-2-yl]-3-pyridyl]propanamide], the percent effect (mortality or growth inhibition) at 200 ppm in data set [1], in [3] and in data set [8] was no less than 80% throughout. In addition, in [2], the mortality at 24 ppm was no less than 80%. Besides, in data set [6], the percent control (mortality, anti-feedant effect or growth inhibition) at 200 ppm was no less than 80%. Moreover, the mortality at 200 ppm in [4] is no less than 80%. Further, in [7], the pest or weed control at 200 ppm was no less than 80%.
Take `CCS(=O)(=O)c1cc(N(C(C)=O)C2(C#N)CC2)cnc1-c1nc2cc(C(F)(F)F)ncc2n1C` [P42, N-(1-cyanocyclopropyl)-N-[5-ethylsulfonyl-6-[3-methyl-6-(trifluoromethyl)imidazo[4,5-c]pyridin-2-yl]-3-pyridyl]acetamide]: the mortality at 200 ppm in [9] and in data set [4] was no less than 80% throughout. For the same compound, in data set [2], the mortality at 24 ppm was no less than 80%. In addition, the percent effect (mortality or growth inhibition) at 200 ppm in [3] and in data set [8] was no less than 80% in each case. Moreover, the percent control (mortality, anti-feedant effect or growth inhibition) at 200 ppm in [6] is no less than 80%. In addition, the pest or weed control at 200 ppm in [7] was no less than 80%.
Consider `CCS(=O)(=O)c1cc(N(C)C(=O)C(C)(C)C#N)cnc1-c1nc2cc(C(F)(F)F)ncc2n1C` [P43, 2-cyano-N-[5-ethylsulfonyl-6-[3-methyl-6-(trifluoromethyl)imidazo[4,5-c]pyridin-2-yl]-3-pyridyl]-N,2-dimethyl-propanamide], for which the percent effect (mortality or growth inhibition) at 200 ppm in data set [1], in [3] and in data set [8] was no less than 80% throughout. The mortality at 24 ppm in [2] was no less than 80%. The percent control (mortality, anti-feedant effect or growth inhibition) at 200 ppm in data set [6] is no less than 80%. Further, the mortality at 200 ppm in data set [4] and in data set [5] was no less than 80% throughout. Besides, in data set [7], the pest or weed control at 200 ppm was no less than 80%.
